Source: PubChem BioAssay (NCI)
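Test compounds were applied to cells in 96-well plates for 48 hours at 5 doses. TGI: concentration producing complete growth inhibition.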

Tests used:
Assay in all cases: NCI anticancer screen, dose series, 48 h
K-562 leukemia = test system: K-562 leukemia
CAKI-1 renal = test system: CAKI-1 renal
HCC-2998 colon = test system: HCC-2998 colon
CCRF-CEM leukemia = test system: CCRF-CEM leukemia
MALME-3M melanoma = test system: MALME-3M melanoma
TK-10 renal = test system: TK-10 renal
OVCAR-8 ovarian = test system: OVCAR-8 ovarian
HCT-15 colon = test system: HCT-15 colon
NCI-H23 lung = test system: NCI-H23 lung
M14 melanoma = test system: M14 melanoma
OVCAR-3 ovarian = test system: OVCAR-3 ovarian
UACC-257 melanoma = test system: UACC-257 melanoma
HT29 colon = test system: HT29 colon
IGROV1 ovarian = test system: IGROV1 ovarian
SNB-19 CNS = test system: SNB-19 CNS
SN12C renal = test system: SN12C renal
MCF7 breast = test system: MCF7 breast

| Compound | TGI (K-562 leukemia) [µM] | TGI (CAKI-1 renal) [µM] | TGI (HCC-2998 colon) [µM] | TGI (CCRF-CEM leukemia) [µM] | TGI (MALME-3M melanoma) [µM] | TGI (TK-10 renal) [µM] | TGI (OVCAR-8 ovarian) [µM] | TGI (HCT-15 colon) [µM] | TGI (NCI-H23 lung) [µM] | TGI (M14 melanoma) [µM] | TGI (OVCAR-3 ovarian) [µM] | TGI (UACC-257 melanoma) [µM] | TGI (HT29 colon) [µM] | TGI (IGROV1 ovarian) [µM] | TGI (SNB-19 CNS) [µM] | TGI (SN12C renal) [µM] | TGI (MCF7 breast) [µM] |
| --- | --- | --- | --- | --- | --- | --- | --- | --- | --- | --- | --- | --- | --- | --- | --- | --- | --- |
| O=C(/C=C/c1ccc(OCc2ccccc2)cc1)NCc1ccc(C(=O)NCCc2c[nH]c3ccccc23)cc1 | > 100 | 45.4 | > 100 | > 100 | 43.3 | > 43 | 31.7 | > 100 | 38.8 | > 62 | > 100 | > 100 | > 56.6 | 56.1 | 29.9 | > 100 | > 100 |
| O=[N+]([O-])C1=Cc2cc(Cl)ccc2OC1c1cccc2ccccc12 (stereo not drawn) | 5.68 | 1.22 | 2.25 | – | 2.91 | 2.55 | 1.42 | 2.95 | 5.46 | 3.66 | 2.95 | 3.4 | 1.79 | 2.87 | 3.04 | 2.54 | 2.16 |
| CCOC(=O)c1nc2ccccc2nc1NCc1ccc(OC)c(OC)c1 | > 100 | > 100 | > 100 | > 100 | > 100 | > 100 | > 100 | > 100 | > 100 | – | > 100 | > 100 | > 100 | > 100 | – | > 100 | > 100 |
| C=C1[C@H]2O[C@H]2[C@@H](OC(C)=O)[C@@]2(C)[C@@H](OC(C)=O)C[C@@H](OC(=O)CCC)[C@@](C)(O)[C@@H]2[C@@H](OC(C)=O)[C@]2(O)[C@@H](C)C(=O)O[C@H]2[C@H]1Cl | > 100 | > 100 | > 100 | – | > 100 | > 100 | > 100 | > 100 | > 100 | > 100 | > 100 | > 100 | > 100 | – | > 100 | > 100 | > 100 |
| COC(=O)CCC1=NCC(C)(C)O1 | – | > 10 | > 10 | > 10 | > 10 | > 10 | > 10 | > 10 | > 10 | > 10 | > 10 | > 10 | > 10 | > 10 | > 10 | > 10 | > 10 |
| Cc1ccc(S(=O)(=O)NC(=O)Nc2cccc(S(N)(=O)=O)c2)cc1 | > 100 | > 100 | > 100 | – | > 100 | > 100 | – | > 100 | > 100 | > 100 | > 100 | – | > 100 | > 100 | > 100 | – | > 100 |
| CC(=O)Nc1ccc2c3c(cc(O)c2c1)N(C(=O)CCCCC(=O)N1CC(CCl)c2c1cc(O)c1cc(NC(C)=O)ccc21)CC3CCl (stereo not drawn) | > 100 | 18.1 | 0.443 | – | 0.575 | 11.9 | > 32.4 | > 70.6 | 0.744 | 1.16 | – | – | > 30.4 | – | 5.02 | 6.4 | 0.264 |
| O=C1C2=Cc3ccccc3OC2(O)Oc2ccccc21 (stereo not drawn) | > 100 | > 100 | > 100 | > 100 | > 100 | > 100 | > 100 | > 100 | > 100 | > 100 | > 100 | > 100 | > 100 | > 100 | – | > 100 | > 100 |
| COc1ccc2c(c1)c1c(n2CCN2CCOCC2)-c2cccc(OC)c2CC1 | > 100 | > 100 | 63.4 | 56.8 | 66.3 | > 100 | > 100 | > 100 | > 100 | > 100 | > 100 | > 100 | 32.2 | > 100 | – | > 100 | 77.3 |
| O=C1c2c(ccc3c2CCC3)CC1Cc1ccc2c(c1)CCC2 (stereo not drawn) | 80.1 | – | > 100 | 37.8 | > 100 | > 100 | > 100 | > 100 | 85.9 | > 100 | > 100 | 61.9 | 60.9 | > 100 | > 100 | > 100 | 96.6 |
| CC(=O)N1c2ccccc2C2=NN(C)C(=N)SC21 (stereo not drawn) | > 100 | – | > 100 | > 100 | > 100 | > 100 | > 100 | > 100 | > 100 | > 100 | > 100 | > 100 | > 100 | – | > 100 | > 100 | > 100 |
